The melting point is the temperature, or range, at which the solid turns liquid.

One series deals with T1, human mGluR2 receptor (Homo sapiens, UniProt Q14416).
T1 construct: expressed in transfected cells; host or cells: CHO cells
In words: [35S]GTPγS binding assay (PAM assay) using membranes from cells transfected with the human mGluR2 receptor. It is filed as biochemical. The conditions noted are these: membranes of CHO cells with human mGluR2, glutamate at predetermined EC25 concentration, averages of duplicate values of 11-concentration response curves; for EC50: read-out: GTPγS - hR2 PAM pEC50 (converted). The procedure:
The [^35S]GTPγS binding assay is a functional membrane-based assay used to study G-protein coupled receptor (GPCR) function whereby incorporation of a non-hydrolysable form of GTP, [^35S]GTPγS (guanosine 5′-triphosphate, labelled with […] ^35S), is measured.
CHO-cells were cultured to pre-confluence and stimulated with 5 mM butyrate for 24 hours, prior to washing in PBS, and then collection by scraping in homogenisation buffer (50 mM Tris-HCl buffer, pH 7.4, 4° C.). Cell lysates were homogenized briefly (15 s) using an ultra-turrax homogenizer. The homogenate was centrifuged at 23 500×g for 10 minutes and the supernatant discarded. The pellet was resuspended in 5 mM Tris-HCl, pH 7.4 and centrifuged again (30 000×g, 20 min, 4° C.). The final pellet was resuspended in 50 mM HEPES, pH 7.4 and stored at −80° C. in appropriate aliquots before use. Protein concentration was determined by the Bradford method (Bio-Rad, USA) with bovine serum albumin as standard.
Measurement of mGluR2 positive allosteric modulatory activity of test compounds in membranes containing human mGluR2 was performed using frozen membranes that were thawed and briefly homogenised prior to pre-incubation in 96-well microplates (15 μg/assay well, 30 minutes, 30° C.) in assay buffer (50 mM HEPES pH 7.4, 100 mM NaCl, 3 mM MgCl2, 50 μM GDP, 10 μg/ml saponin,) with increasing concentrations of positive allosteric modulator (from 0.3 nM to 50 μM) and either a minimal pre-determined concentration of glutamate (PAM assay), or no added glutamate. […] After addition of [^35S]GTPγS (0.1 nM, f.c.) to achieve a total reaction volume of 200 μl, microplates were shaken briefly and further incubated to allow [^35S]GTPγS incorporation on activation (30 minutes, 30° C.). The reaction was stopped by rapid vacuum filtration over glass-fibre filter plates (Unifilter 96-well GF/B filter plates, Perkin-Elmer, Downers Grove, USA) microplate using a 96-well plate cell harvester (Filtermate, Perkin-Elmer, USA), and then by washing three times with 300 μl of ice-cold wash buffer (Na2PO4.2H2O 10 mM, NaH2PO4.H2O 10 mM, pH=7.4). Filters were then air-dried, and 40 μl of liquid scintillation cocktail (Microscint-O) was added to each well, and membrane-bound [^35S]GTPγS was measured in a 96-well scintillation plate reader (Top-Count, Perkin-Elmer, USA). Non-specific [^35S]GTPγS binding is determined in the presence of cold 10 μM GTP. Each curve was performed at least once using duplicate sample per data point and at 11 concentrations.
The concentration-response curves of representative compounds of the present invention in the presence of added EC25 of mGluR2 agonist glutamate to determine positive allosteric modulation (PAM), were generated using the Prism GraphPad software (Graph Pad Inc, San Diego, USA). The curves were fitted to a four-parameter logistic equation (Y=Bottom+(Top-Bottom)/(1+10^((Log EC50−X)*Hill Slope) allowing determination of EC50 values. The EC50 is the concentration of a compound that causes a half-maximal potentiation of the glutamate response. This is calculated by subtracting the maximal responses of glutamate in presence of a fully saturating concentration of a positive allosteric modulator from the response of glutamate in absence of a positive allosteric modulator. The concentration producing the half-maximal effect is then calculated as EC50
A general note: Binding of GTPγS marks nucleotide exchange on a G protein.

T1 sequence (Q14416 19-872): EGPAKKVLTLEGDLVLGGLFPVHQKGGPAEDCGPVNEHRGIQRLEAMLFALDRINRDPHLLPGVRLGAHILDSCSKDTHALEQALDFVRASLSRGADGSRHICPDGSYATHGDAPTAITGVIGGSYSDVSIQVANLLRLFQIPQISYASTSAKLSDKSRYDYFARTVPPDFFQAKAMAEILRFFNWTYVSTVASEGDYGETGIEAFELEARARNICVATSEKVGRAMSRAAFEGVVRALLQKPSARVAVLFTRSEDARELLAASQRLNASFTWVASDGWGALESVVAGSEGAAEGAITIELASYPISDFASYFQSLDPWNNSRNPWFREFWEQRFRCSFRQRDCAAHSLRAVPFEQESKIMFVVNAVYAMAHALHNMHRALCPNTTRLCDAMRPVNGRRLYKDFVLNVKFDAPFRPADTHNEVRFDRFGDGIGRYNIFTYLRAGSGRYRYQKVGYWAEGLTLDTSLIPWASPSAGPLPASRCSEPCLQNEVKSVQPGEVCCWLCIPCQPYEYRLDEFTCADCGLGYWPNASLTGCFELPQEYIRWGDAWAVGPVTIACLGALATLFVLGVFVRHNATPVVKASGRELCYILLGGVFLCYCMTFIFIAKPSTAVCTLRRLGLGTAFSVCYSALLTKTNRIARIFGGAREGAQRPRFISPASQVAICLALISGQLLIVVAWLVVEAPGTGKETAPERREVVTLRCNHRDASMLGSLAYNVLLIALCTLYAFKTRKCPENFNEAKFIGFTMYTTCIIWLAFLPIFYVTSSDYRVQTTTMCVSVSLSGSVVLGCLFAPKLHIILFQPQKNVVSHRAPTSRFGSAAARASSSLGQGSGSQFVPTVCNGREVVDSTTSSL

`CCCc1cnc2c(C#N)c(N3CCC(c4ccccc4)CC3)ccn12` [Example 6] came in with a melting point of 161 °C. Also, on human mGluR2 receptor, the “GTPγS - hR2 PAM pEC50” value is given as 6.81.
As to `CCCc1cnc2c(C#N)c(-c3ccc(Oc4cccnc4C)cc3)ccn12` [Example 9], the melting point came out at 159 °C. The EC50 on human mGluR2 receptor was 316 nM.
As for `N#Cc1c(-c2ccc(O[C@H]3CC[C@@H](O)CC3)c(Cl)c2)ccn2c(CC(F)(F)F)cnc12` [Example 103], the melting point came to 210.2 °C. Also, the EC50 at human mGluR2 receptor was 933 nM.
Turning to `N#Cc1c(-c2ccc(NC3CCOCC3)c(Cl)c2)ccn2c(CC(F)(F)F)cnc12` [Example 92], the melting point worked out at 230.7 °C. At human mGluR2 receptor, the “GTPγS - hR2 PAM pEC50” value is on record as 6.15.
In turn, `CCc1cnc2c(C#N)c(-c3ccc(Oc4ccnc(C)c4)c(F)c3)ccn12` [Example 25] came in with a melting point of 197.6 °C.
For `N#Cc1c(N2CCC3(CC2)OCc2ccccc23)ccn2c(CC(F)(F)F)cnc12` [Example 58], the melting point was 212.9 °C. Moreover, the EC50 at human mGluR2 receptor was 97.7 nM.
For `N#Cc1c(CN2CCC(F)(c3ccccc3)CC2)ccn2c(CC(F)(F)F)cnc12` [Example 40], in that order: 145 °C and 1290 nM.
`N#Cc1c(CN2CCC(O)(c3ccc(F)cc3)CC2)ccn2c(CC(F)(F)F)cnc12` [Example 38] displayed a melting point of 181.2 °C.
Turning to `FC(F)(F)Cc1cnc2c(Cl)c(N3CCC(F)(c4ccccc4)CC3)ccn12` [Example 50, 8-Chloro-7-(4-fluoro-4-phenyl-piperidin-1-yl)-3-(2,2,2-trifluoro-ethyl)-imidazo[1,2-a]pyridine], the melting point is 220.7 °C. On human mGluR2 receptor, the EC50 is 195 nM.
The compound `N#Cc1c(-c2ccc(Oc3ccccc3)cc2)ccn2c(CC(F)(F)F)cnc12` [Example 80] had a melting point of 174.3 °C. Also, the “GTPγS - hR2 PAM pEC50” value on human mGluR2 receptor is recorded as 6.73.
As for `N#Cc1c(N2CCC(c3ccc(F)cc3F)CC2)ccn2c(CC(F)(F)F)cnc12` [Example 33], the melting point was found to be 186.5 °C. In addition, the EC50 on human mGluR2 receptor is 61.7 nM.
On the same counts, the results for `CCc1cnc2c(C#N)c(N3CCC(O)(c4ccccc4)CC3)ccn12` [Example 16] are 265 °C and 1000 nM.
For the compound `CC(C)(O)c1ccccc1C1CCN(c2ccn3c(CC(F)(F)F)cnc3c2C#N)CC1` [Example 67, 7-{4-[2-(1-Hydroxy-1-methyl-ethyl)-phenyl]-piperidin-1-yl}-3-(2,2,2-trifluoro-ethyl)-imidazo[1,2-a]pyridine-8-carbonitrile], the melting point came out at 227.5 °C. Also, the EC50 on human mGluR2 receptor was 145 nM.
Turning to `Cc1cc(C)nc(N2CCN(c3ccn4c(CC(F)(F)F)cnc4c3C#N)CC2)n1` [Example 34], the melting point was above 300 °C. Also, the “GTPγS - hR2 PAM pEC50” value at human mGluR2 receptor was 6.35.
`CCCc1cnc2c(C#N)c(-c3ccc(Oc4ccnc(C)c4)cc3)ccn12` [Example 11]: the melting point turned out to be 181.8 °C. Also, on human mGluR2 receptor, the EC50 is 427 nM.
For `Fc1ccccc1N1CCN(Cc2ccn3c(CC(F)(F)F)cnc3c2Cl)CC1` [Example 46], in that order: 150.2 °C and 1740 nM.
On to `N#Cc1c(-c2ccc(N[C@H]3CC[C@H](O)CC3)c(Cl)c2)ccn2c(CC(F)(F)F)cnc12` [Example 96, (trans)-7-[3-Chloro-4-(4-hydroxy-cyclohexylamino)-phenyl]-3-(2,2,2-trifluoro-ethyl)-imidazo[1,2-a]pyridine-8-carbonitrile], for which the melting point turned out to be 123.7 °C. Also, the EC50 at human mGluR2 receptor was 295 nM.
For `N#Cc1c(N2CCC(O)(c3ccccc3)CC2)ccn2c(CC(F)(F)F)cnc12` [Example 30], in that order: 272.1 °C and 417 nM.
In turn, `CC(O)(c1ccccc1)c1ccc(-c2ccn3c(CC(F)(F)F)cnc3c2C#N)cc1` (stereo not shown) [Example 81] had a melting point of 102.7 °C. Also, the EC50 at human mGluR2 receptor is 525 nM.
For `CC(C)(O)c1ccc(Oc2ccc(-c3ccn4c(CC(F)(F)F)cnc4c3C#N)cc2)cc1` [Example 82], in that order: 143.2 °C and 44.7 nM.
For `COc1cccc(C2(O)CCN(Cc3ccn4c(CC(F)(F)F)cnc4c3C#N)CC2)c1` [Example 43], the melting point stood at 196 °C.
For `FC(F)(F)Cc1cnc2c(Cl)c(-c3ccc(NC4CCOCC4)c(Cl)c3)ccn12` [Example 99], the melting point turned out to be 149.7 °C. In addition, the EC50 on human mGluR2 receptor is 631 nM.
On the same counts, the results for `N#Cc1c(N2CCC(c3cccc(C(F)(F)F)c3)CC2)ccn2c(CC(F)(F)F)cnc12` [Example 32] are above 300 °C and 81.3 nM.
In turn, `N#Cc1c(N2CCC(c3ccccc3F)CC2)ccn2c(CC(F)(F)F)cnc12` [Example 31] returned a melting point of 139.3 °C. In addition, the EC50 at human mGluR2 receptor is 81.3 nM.
`Cc1c(N2CCC(c3ccccc3)CC2)ccn2c(CC(F)(F)F)cnc12` [Example 64] displayed a melting point of 213.9 °C. Besides, the EC50 at human mGluR2 receptor was 1550 nM.
For the compound `N#Cc1c(-c2ccc(C(F)c3ccccc3)cc2)ccn2c(CC(F)(F)F)cnc12` (stereo not shown) [Example 79], the melting point came to 173.4 °C. The EC50 on human mGluR2 receptor is 257 nM.
For `N#Cc1c(-c2ccc(N[C@H]3CC[C@H](O)CC3)cc2)ccn2c(CC(F)(F)F)cnc12` [Example 91, 7-[4-(4-hydroxy-cyclohexylamino)-phenyl]-3-(2,2,2-trifluoro-ethyl)-imidazo[1,2-a]pyridine-8-carbonitrile], in that order: 137.5 °C and 1120 nM.
In turn, `N#Cc1c(N2CCN(c3ncccn3)CC2)ccn2c(CC(F)(F)F)cnc12` [Example 2, 7-(4-Pyrimidin-2-yl-piperazin-1-yl)-3-(2,2,2-trifluoro-ethyl)-imidazo[1,2-a]pyridine-8-carbonitrile] came in with a melting point of 239 °C. Besides, the “GTPγS - hR2 PAM pEC50” value at human mGluR2 receptor is reported as 6.07.
Consider `CCCc1cnc2c(C#N)c(N3CCC(O)(c4ccccc4)CC3)ccn12` [Example 8], for which the melting point was 201.1 °C. The EC50 at human mGluR2 receptor was 316 nM.
The compound `N#Cc1c(N2CCN(c3ccccc3)CC2)ccn2c(-c3ccccc3)cnc12` [Example 20] registered a melting point of 220 °C.
Still for that read-out and setting: in the case of `FC(F)(F)Cc1cnc2c(Cl)c(CN3CCC4(CC3)OCc3ccccc34)ccn12` [Example 123] it was 164.2 °C; in that of `FC(F)(F)Cc1cnc2c(Cl)c(CN3CCN(c4ncccn4)CC3)ccn12` [Example 36, 8-Chloro-7-(4-pyrimidin-2-yl-piperazin-1-ylmethyl)-3-(2,2,2-trifluoro-ethyl)imidazo[1,2-a]pyridine], 161.4 °C; in that of `CCCc1cnc2c(C#N)c(N3CCN(c4ncccn4)CC3)ccn12` [Example 22], 176.4 °C.
On to `CC(C)(O)COc1ccc(-c2ccn3c(CC(F)(F)F)cnc3c2C#N)cc1Cl` [Example 86], for which the EC50 at human mGluR2 receptor is 3160 nM.
The same measure, in the same setting: in the case of `N#Cc1c(CN2CCN(c3ccc(F)cc3F)CC2)ccn2c(CC(F)(F)F)cnc12` [Example 39] it was 1380 nM.
Same read-out and setting: the figure for `N#Cc1c(N2CCc3c([nH]c4ccccc34)C2)ccn2c(CC(F)(F)F)cnc12` [Example 117] is 692 nM; for `N#Cc1c(-c2ccc(O[C@H]3CC[C@H](O)CC3)c(Cl)c2)ccn2c(CC(F)(F)F)cnc12` [Example 102] it is 851 nM; for `N#Cc1c(-c2ccc(N[C@H]3CC[C@@H](O)CC3)c(Cl)c2)ccn2c(CC(F)(F)F)cnc12` [Example 95, (cis)-7-[3-Chloro-4-(4-hydroxy-cyclohexylamino)-phenyl]-3-(2,2,2-trifluoro-ethyl)-imidazo[1,2-a]pyridine-8-carbonitrile] it is 186 nM.

The values are drawn from US8785486B2, “Imidazo[1,2-A]pyridine derivatives and their use as positive allosteric modulators of mGluR2 receptors” (Janssen Pharmaceuticals, Inc., priority 2007, dated 2014).
